Here are results for one substance from US20220017433A1 (UNIVERSITÄT ZÜRICH, priority 2018, published 2022).

The data set in a line: Water solubility of the chelating compounds. Particulars: aqueous stock solution, pH lowered with HCl. Type of data set: physicochemical.

On to Desferrioxamine-p-arylazide [DFO-ArN3], for which the “pH below which the compound starts to precipitate slowly” value is reported as around 9.
